Data taken from patent US11453652B2, “Di-macrocycles” (LUMIPHORE, INC., priority 2013, dated 2022).
{AmC3} = aminopropyl group

Test: Gel electrophoresis mobility shift assay of metal cation complexation
Format: binding
Conditions: 20% polyacrylamide gel, 8M urea; incubated 55° C. 15 minutes, HEPES pH 7.5; compared with no metal cation
Method: For use in certain applications, such as acting as a bifunctional chelating agent to attach a radioisotope to a site-directing molecule, it is necessary that the chelator be able to coordinate to the metal ion of interest in a kinetically facile and thermodynamically stable manner. […] In this experiment, a conjugate of 12 with a small (18 base length) DNA oligomer, 15 was treated with a solution containing a metal cation. The electrophoretic mobility of the conjugate on a polyacrylamide gel was then compared with that of the conjugate which was not exposed to the solution of metal cation. […] The gel electrophoretic mobility of the DNA oligomer 14 that was not conjugated to 12, present in the solution of 15, was also compared with and without exposure to the metal cation solution.
C=control, no metal cations. Y, Eu, Tb, Zr, Th=yttrium(III), europium(III), terbium(III), zirconium(IV), and thorium(IV), respectively. Arrow indicates luminescent band observed under hand held ultraviolet lamp.
In particular, a solution of DNA oligomer (3 μL, 33 μM, all concentrations final) was mixed with a solution of metal cation (2 μL, 625 μM) or an equal volume of water, additional water (2.5 μL) and a buffer solution (2.5 μL, 50 mM HEPES, pH 7.5). […]

Substance | electrophoretic mobility following treatment with the metal cation solution
Conjugate 15: conjugate of di-macrocycle 12 with 18-base DNA oligonucleotide 14 (DNA AAGGTCATCCATGACAAC; DNA, backbone and methylation of C not given here; di-macrocycle 12 conjugated) | migrates more slowly
unmodified oligonucleotide: DNA 18-base oligonucleotide 5′-AAGGTCATCCATGACAAC-3′ with 5′-aminopropyl group, not conjugated to 12 (DNA, 5' {AmC3}, backbone and methylation of C not given here) | unaffected
